Measured values published in patent US20250263396A1, “CRYSTALLINE FORMS OF 3-(5-(2-HYDROXY-2- METHYLPROPOXY)-6-METHYPYRAZIN-2-YL)-1H-INDOLE-7-CARBONITRILE” (NIDO BIOSCIENCES, INC., priority 2024, published 2025).
In brackets after ≈: the same amount, converted by molar mass. Read-outs that look alike come from different tables or passages of the source.

Tests used:
[1] = cake dried under vacuum
Description: The cake of Form P was dried under vacuum at different temperatures to evaluate the chemical stability of dry cake.

[2] = Hygroscopicity by dynamic vapor sorption (DVS); format: physicochemical
Procedure: Dynamic vapor sorption (DVS) was performed on an Intrinsic, Advantage or Adventure with an oven temperature of 25° C. using water as a solvent. The sample mass was about 5-10 mg using the following method: • Cycle: 40-0-95-0-40% RH • Stage Step: 10% • Equilibrium: 0.002 dm/dt (%/min) • Minimum dm/dt stability duration: 60 min • Maximum dm/dt stage time: 360 min.
Hygroscopicity of Form P was evaluated by dynamic vapor sorption (DVS) test at 25° C. Form P is non-hygroscopic at 80% RH; about 0.1% water uptake at 80% RH. Form P is slightly hygroscopic from 80% RH-95% RH: About 1.6% water uptake from 80% RH to 95% RH.

physchem = conditions: 37 °C, thermodynamic from solid
Procedure: Non-milled Form P (10 mg, purity 100%) was weighed into a 20 mL glass vial. 5 mL of solubility medium was added. Obtained suspensions were stirred at 37° C. at 400 rpm and sampled at 24 hours. The samples were centrifuged at 37 C at 14,000 rpm for 5 min. Supernatants were analyzed by HPLC and pH meter for solubility and pH value, respectively. Residual solids (wet cakes) from the 24 hours samples were also characterized by XRPD to determine physical form.

[3] = wet cake in sealed bottle
Procedure: Wet cake chemical stability of Form P at 40° C., 50° C., 60° C. was evaluated.

[4] = Dry grinding simulation experiments; format: physicochemical; conditions: ground manually with mortar and pestle
Procedure: About 10 mg of Form P was ground manually with a mortar and a pestle for 1, 3 and 5 minutes.
About 10 mg of Form C was ground manually with a mortar and a pestle for 5 minutes.

[5] = 10% relative humidity at 25° C.
[6] = 20% relative humidity at 25° C.
[7] = 30% relative humidity at 25° C.
[8] = 40% relative humidity at 25° C.
[9] = 50% relative humidity at 25° C.
[10] = 60% relative humidity at 25° C.
[11] = 70% relative humidity at 25° C.
[12] = 80% relative humidity at 25° C.
[13] = 90% relative humidity at 25° C.
[14] = 95% relative humidity at 25° C.

## Cc1nc(-c2c[nH]c3c(C#N)cccc23)cnc1OCC(C)(C)O [Form P, 3-(5-(2-hydroxy-2-methylpropoxy)-6-methylpyrazin-2-yl)-1H-indole-7-carbonitrile]
[1]; 0 h
  Purity after holding: Purity: 100%
[1]; 40° C., 22 h
  Purity after holding: 100%
[1]; 40° C., 4 d
  Purity after holding: 100%
[1]; 50° C., 22 h
  Purity after holding: 100%
[1]; 50° C., 4 d
  Purity after holding: 100%
[1]; 60° C., 22 h
  Purity after holding: 100%
[1]; 60° C., 4 d
  Purity after holding: 100%
[2]; 0% relative humidity at 25° C.
  1st desorp. Weight % change: 0.1%
  1st sorp. Weight % change: 0.1%
  2nd desorp. Weight % change: 0.0%
  2nd sorp. Weight % change: 0.0%
[2]; [5]
  1st desorp. Weight % change: 0.1%
  1st sorp. Weight % change: 0.1%
  2nd desorp. Weight % change: 0.0%
  2nd sorp. Weight % change: 0.0%
[2]; [6]
  1st desorp. Weight % change: 0.1%
  1st sorp. Weight % change: 0.1%
  2nd desorp. Weight % change: 0.0%
  2nd sorp. Weight % change: 0.0%
[2]; 25° C.
  Form after the DVS test: still in Form P
[2]; [7]
  1st desorp. Weight % change: 0.2%
  1st sorp. Weight % change: 0.1%
  2nd desorp. Weight % change: 0.1%
  2nd sorp. Weight % change: 0.0%
[2]; [8]
  1st desorp. Weight % change: 0.2%
  1st sorp. Weight % change: 0.1%
  2nd desorp. Weight % change: 0.1%
  2nd sorp. Weight % change: 0.0%
[2]; [9]
  1st sorp. Weight % change: 0.1%
  2nd desorp. Weight % change: 0.1%
[2]; [10]
  1st sorp. Weight % change: 0.1%
  2nd desorp. Weight % change: 0.2%
[2]; [11]
  1st sorp. Weight % change: 0.1%
  2nd desorp. Weight % change: 0.3%
[2]; [12]
  1st sorp. Weight % change: 0.2%
  2nd desorp. Weight % change: 0.4%
[2]; [13]
  1st sorp. Weight % change: 0.8%
  2nd desorp. Weight % change: 0.9%
[2]; [14]
  1st sorp. Weight % change: 1.8%
  2nd desorp. Weight % change: 1.8%
[2]; at 80% RH, 25° C.
  Hygroscopicity: non-hygroscopic (water uptake <0.2% = non-hygroscopic)
  water uptake: about 0.1%
[2]; from 80% RH to 95% RH, 25° C.
  water uptake: About 1.6%
[2]; from 80% RH-95% RH, 25° C.
  Hygroscopicity: slightly hygroscopic (water uptake ≥0.2% but <2% = slightly hygroscopic)
physchem; pH 1.2, simulated gastric fluid
  solubility at 24 h: 7.2 µg/mL (≈ 22.3 µM)
physchem; pH 1.6, fassgf or other biorelevant
  solubility at 24 h: 5.1 µg/mL (≈ 15.8 µM)
physchem; pH 3, aqueous buffer
  solubility at 24 h: 2.9 µg/mL (≈ 9 µM)
physchem; pH 5, aqueous buffer
  solubility at 24 h: 2.3 µg/mL (≈ 7.13 µM)
physchem; pH 5, fessif
  solubility at 24 h: 111 µg/mL (≈ 343 µM)
physchem; pH 6.5, fassif
  solubility at 24 h: 20.9 µg/mL (≈ 64.8 µM)
physchem; pH 7, aqueous buffer
  solubility at 24 h: 2.4 µg/mL (≈ 7.44 µM)
physchem; water
  solubility at 24 h: 2.7 µg/mL (≈ 8.38 µM)
[3]; 0 h
  Purity after holding: Purity: 100%
[3]; 40° C., 22 h
  Purity after holding: 100%
[3]; 40° C., 4 d
  Purity after holding: 100%
[3]; 50° C., 22 h
  Purity after holding: 100%
[3]; 50° C., 4 d
  Purity after holding: 100%
[3]; 60° C., 22 h
  Purity after holding: 100%
[3]; 60° C., 4 d
  Purity after holding: 100%
[4]; 1 min
  Comments (crystallinity): No obvious change in crystallinity
  XRPD: Form P
[4]; 3 min
  Comments (crystallinity): No obvious change in crystallinity
  XRPD: Form P
[4]; 5 min
  Comments (crystallinity): No obvious change in crystallinity
  XRPD: Form P
